# Test system: HUVEC-lined conduit
# Conditions: laser-triggered release of VEGF from capsules on one side of conduit
# Excerpt: To mimic the beginning of a metastatic cascade in the context of cell types relevant to the tumor microenvironment, a vascularized 3D-printed culture chamber was configured to provide spatiotemporal control over both tumor cell invasion and angiogenesis as illustrated in FIG. 28. The angiogenic mediator VEGF was introduced to promote and direct the formation of a vascular network from a pre-existing uniaxial conduit.
substance,measurement,value
VEGF,endothelial sprouting from the conduit,numerous endothelial cells sprouted from the conduit

# From patent publication US11781101B2, “3D-printed models of biological microenvironments” (Regents of the University of Minnesota, priority 2018, dated 2023)
